Legend:
Format in all cases: in vivo
corn (Zea mays) = assay: Test B pre-/postemergence plant response
Outline: (§1)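 Ratings reflect visual injury versus untreated controls, from 0 for no effect to 100 for complete control, assessed roughly 10 days after treatment. Formulation: non-phytotoxic solvent mix with surfactant; pre- and postemergence sprays on plants grown in loam soil and sand.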

[1] = test system: pigweed (Amaranthus retroflexus); assay: Test B pre-/postemergence plant response
Outline: as §1

[2] = test system: barnyardgrass (Echinochloa crus-galli); assay: Test B pre-/postemergence plant response
Outline: as §1

kochia (Kochia scoparia) [3] = assay: Test B pre-/postemergence plant response
Outline: as §1

[4] = test system: Italian ryegrass (Lolium multiflorum); assay: Test B pre-/postemergence plant response
Outline: as §1

[5] = test system: ragweed (common ragweed, Ambrosia elatior); assay: Test B pre-/postemergence plant response
Outline: as §1

[6] = test system: giant foxtail (Setaria faberii); assay: Test B pre-/postemergence plant response
Outline: as §1

[7] = test system: wheat (Triticum aestivum); assay: Test B pre-/postemergence plant response
Outline: as §1

[8] = test system: galium (catchweed bedstraw, Galium aparine); assay: Test B postemergence plant response
Outline: (§2)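 Seedlings in a loam soil and sand mix received a postemergence application of the formulated chemicals at the one- to two-leaf stage (2–10 cm tall). They were kept in a greenhouse for roughly 10 days, then scored for injury relative to untreated plants, 0 meaning no effect and 100 complete control.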

[9] = test system: blackgrass (Alopecurus myosuroides); assay: Test B postemergence plant response
Outline: as §2

[10] = test system: small-flower umbrella sedge (Cyperus difformis); assay: Test C flooded paddy test plant response; conditions: Flood, 250 g ai/ha; scale of 0 to 100 where 0 is no effect and 100 is complete control; 13 to 15 days
Outline: (§3)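 2-leaf plants; flood 3 cm, cpd into paddy water; greenhouse 13–15 d; visual score vs untreated, 0 = no effect, 100 = complete control; dash = no result.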

rice (Oryza sativa) = assay: Test C flooded paddy test plant response; conditions: Flood, 250 g ai/ha; scale of 0 to 100 where 0 is no effect and 100 is complete control; 13 to 15 days
Outline: as §3

[11] = test system: ducksalad (Heteranthera limosa); assay: Test C flooded paddy test plant response; conditions: Flood, 250 g ai/ha; scale of 0 to 100 where 0 is no effect and 100 is complete control; 13 to 15 days
Outline: as §3

[12] = test system: barnyardgrass (Echinochloa crus-galli); assay: Test C flooded paddy test plant response; conditions: Flood, 250 g ai/ha; scale of 0 to 100 where 0 is no effect and 100 is complete control; 13 to 15 days
Outline: as §3

wild oat (Avena fatua) = assay: Test D postemergence plant response; conditions: for Oat, Wild plant response rating: scale 0 to 100 (0 no effect, 100 complete control); for Plant response rating, Oat, Wild: scale 0 to 100, 0 no effect, 100 complete control
Outline: (§4)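 Scores reflect visual plant response relative to untreated controls on a 0 to 100 scale, where 100 means complete control. Treatment was postemergence on 2–18 cm plants in peat-based potting medium, with greenhouse assessment 13–15 days later.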

kochia (Kochia scoparia) [13] = assay: Test D postemergence plant response; conditions: for Kochia plant response rating: scale 0 to 100 (0 no effect, 100 complete control); for Plant response rating, Kochia: scale 0 to 100, 0 no effect, 100 complete control
Outline: as §4

[14] = test system: chickweed (common chickweed, Stellaria media); assay: Test D postemergence plant response; conditions: for Chickweed plant response rating: scale 0 to 100 (0 no effect, 100 complete control); for Plant response rating, Chickweed: scale 0 to 100, 0 no effect, 100 complete control
Outline: as §4

[15] = 125 g ai/ha, postemergence, 0 to 100 scale, 0 no effect, 100 complete control
[16] = Postemergence, 500 g ai/ha, 0 to 100 scale (0 no effect, 100 complete control)
[17] = Preemergence, 125 g ai/ha, 0 to 100 scale where 0 is no effect and 100 is complete control
[18] = Preemergence, 500 g ai/ha, 0 to 100 scale where 0 is no effect and 100 is complete control

Cc1cc(-c2ccccc2Oc2ncc(Cl)cn2)no1 [Compound 60]
Plant response rating, Corn (corn (Zea mays); [15]): 30 | Plant response rating, Corn (corn (Zea mays); [16]): 90 | Plant response rating, Pigweed [1, 15]: 100 | Plant response rating, Pigweed [1, 16]: 100 | Plant response rating, Pigweed [1, 17]: 100 | Plant response rating, Pigweed [1, 18]: 100 | Plant response rating, Barnyardgrass [2, 15]: 50 | Plant response rating, Barnyardgrass [2, 16]: 100 | Plant response rating, Barnyardgrass [2, 17]: 80 | Plant response rating, Barnyardgrass [2, 18]: 100 | Plant response rating, Kochia (kochia (Kochia scoparia) [3]; [15]): 90 | Plant response rating, Kochia (kochia (Kochia scoparia) [3]; [16]): 100 | Plant response rating, Kochia (kochia (Kochia scoparia) [3]; [17]): 90 | Plant response rating, Kochia (kochia (Kochia scoparia) [3]; [18]): 100 | Plant response rating, Ryegrass, Italian [4, 15]: 0 | Plant response rating, Ryegrass, Italian [4, 16]: 80 | Plant response rating, Ryegrass, Italian [4, 17]: 0 | Plant response rating, Ryegrass, Italian [4, 18]: 30 | Plant response rating, Ragweed [5, 15]: 60 | Plant response rating, Ragweed [5, 16]: 90 | Plant response rating, Ragweed [5, 17]: 20 | Plant response rating, Ragweed [5, 18]: 50 | Plant response rating, Foxtail, Giant [6, 15]: 50 | Plant response rating, Foxtail, Giant [6, 16]: 100 | Plant response rating, Foxtail, Giant [6, 17]: 80 | Plant response rating, Foxtail, Giant [6, 18]: 100 | Plant response rating, Wheat [7, 15]: 30 | Plant response rating, Wheat [7, 16]: 90 | Plant response rating, Galium [8, 15]: 100 | Plant response rating, Galium [8, 16]: 100 | Plant response rating, Blackgrass [9, 15]: 50 | Plant response rating, Blackgrass [9, 16]: 100 | Sedge, Umbrella plant response rating [10]: 50 | Rice plant response rating (rice (Oryza sativa)): 30 | Ducksalad plant response rating [11]: 80 | Barnyardgrass plant response rating [12]: 20 | Oat, Wild plant response rating (wild oat (Avena fatua); 16 g ai/ha): 5 | Oat, Wild plant response rating (wild oat (Avena fatua); 31 g ai/ha): 0 | Plant response rating, Oat, Wild (wild oat (Avena fatua); 62 g ai/ha): 0 | Plant response rating, Oat, Wild (wild oat (Avena fatua); 125 g ai/ha): 5 | Kochia plant response rating (kochia (Kochia scoparia) [13]; 16 g ai/ha): 50 | Kochia plant response rating (kochia (Kochia scoparia) [13]; 31 g ai/ha): 50 | Plant response rating, Kochia (kochia (Kochia scoparia) [13]; 62 g ai/ha): 55 | Plant response rating, Kochia (kochia (Kochia scoparia) [13]; 125 g ai/ha): 90 | Chickweed plant response rating ([14]; 16 g ai/ha): 45 | Chickweed plant response rating ([14]; 31 g ai/ha): 50 | Plant response rating, Chickweed ([14]; 62 g ai/ha): 60 | Plant response rating, Chickweed ([14]; 125 g ai/ha): 75

Reference: US10131652B2, “Pyrimidinyloxy benzene derivatives as herbicides” (E. I. DU PONT DE NEMOURS AND COMPANY, priority 2014, dated 2018)
